Results taken from patent publication US9326506B2, “Preparation method, agricultural composition and applications of natural brassinolide analogs” (CHENGDU NEWSUN CROPSCIENCE CO., LTD, priority 2012, dated 2016).

Tested on: rice
Test: Low temperature assay on rice seedlings
Assay type: in vivo
Protocol: According to a low temperature assay, we measured parameters including plant height, number of leaf, area of leaf, number of tiller, weight of root at low temperature to completely determine effects of the natural brassinolide analogues on the resistance to low temperature of a plant.
The natural brassinolide analogues, BR1, BR2, BR3, BR4, BR5 and BR6, used herein, were those prepared by the method of Example 1. Respectively the analogues were dissolved into 95% (V/V) ethanol solution, and then diluted with pure water to 1 mg/L, 0.1 mg/L, 0.01 mg/L, 0.001 mg/L and 0.0001 mg/L. In addition, pure water was used as a control.
After rice seeds were disinfected by using 5% sodium hypochlorite solution treatment, they were rinsed with distilled water until their pH>7, placed into a petri dish in a dark incubator, and cultured by using water at 30° C.±2° C. for 9 days. Then respectively the nine-day-old etiolated seedlings of rice were immersed in the above solutions containing different concentrations of the natural brassinolide analogues or pure water, and cultured at the temperature of 1° C., 2° C., 3° C., 4° C. and 5° C. for 24 hr. The parameters including plant height, area of leaf and weight of root after 3, 6, 9 and 12 days and number of leaf and number of tiller after 12 days were measured.

With C=C(C(C)C)[C@@H](O)[C@H](O)[C@@H](C)[C@H]1CCC2C3COC(=O)C4C[C@H](O)[C@H](O)C[C@]4(C)C3CC[C@@]21C (stereo partly drawn) [BR3] the Area of leaf (0.0001 mg/l, 1 °C, 3 days) was 9.8 cm^2, the Height (0.0001 mg/l, 1 °C, 3 days) was 6.8 cm and the Weight of root (0.0001 mg/l, 1 °C, 3 days) was 2.8 g. For the same compound, the Area of leaf (0.0001 mg/l, 1 °C, 6 days) was 11 cm^2, the Height (0.0001 mg/l, 1 °C, 6 days) was 6.9 cm and the Weight of root (0.0001 mg/l, 1 °C, 6 days) was 3 g. For the same compound, the Area of leaf (0.0001 mg/l, 1 °C, 9 days) was 12.2 cm^2, the Height (0.0001 mg/l, 1 °C, 9 days) was 7.1 cm and the Weight of root (0.0001 mg/l, 1 °C, 9 days) was 3.4 g. It also gave an Area of leaf (0.0001 mg/l, 1 °C, 12 days) of 13.1 cm^2, a Height (0.0001 mg/l, 1 °C, 12 days) of 7.2 cm and a Number of leaf (0.0001 mg/l, 1 °C, 12 days) of 3. It also gave a Number of tiller (0.0001 mg/l, 1 °C, 12 days) of 3, a Weight of root (0.0001 mg/l, 1 °C, 12 days) of 3.9 g and an Area of leaf (0.0001 mg/l, 2 °C, 3 days) of 10 cm^2. The Height (0.0001 mg/l, 2 °C, 3 days) was 6.8 cm, the Weight of root (0.0001 mg/l, 2 °C, 3 days) was 2.8 g and the Area of leaf (0.0001 mg/l, 2 °C, 6 days) was 11.7 cm^2. The Height (0.0001 mg/l, 2 °C, 6 days) was 7 cm, the Weight of root (0.0001 mg/l, 2 °C, 6 days) was 3.0 g and the Area of leaf (0.0001 mg/l, 2 °C, 9 days) was 12.1 cm^2. For the same compound, the Height (0.0001 mg/l, 2 °C, 9 days) was 7.1 cm, the Weight of root (0.0001 mg/l, 2 °C, 9 days) was 3.2 g and the Area of leaf (0.0001 mg/l, 2 °C, 12 days) was 13 cm^2. It also gave a Height (0.0001 mg/l, 2 °C, 12 days) of 7.4 cm, a Number of leaf (0.0001 mg/l, 2 °C, 12 days) of 3 and a Number of tiller (0.0001 mg/l, 2 °C, 12 days) of 3. For the same compound, the Weight of root (0.0001 mg/l, 2 °C, 12 days) was 3.9 g, the Area of leaf (0.0001 mg/l, 3 °C, 3 days) was 10 cm^2 and the Height (0.0001 mg/l, 3 °C, 3 days) was 6.9 cm. It also gave a Weight of root (0.0001 mg/l, 3 °C, 3 days) of 2.5 g, an Area of leaf (0.0001 mg/l, 3 °C, 6 days) of 11.8 cm^2 and a Height (0.0001 mg/l, 3 °C, 6 days) of 7.1 cm. The Weight of root (0.0001 mg/l, 3 °C, 6 days) was 2.6 g, the Area of leaf (0.0001 mg/l, 3 °C, 9 days) was 12.1 cm^2 and the Height (0.0001 mg/l, 3 °C, 9 days) was 7.4 cm. The Weight of root (0.0001 mg/l, 3 °C, 9 days) was 2.9 g, the Area of leaf (0.0001 mg/l, 3 °C, 12 days) was 13.2 cm^2 and the Height (0.0001 mg/l, 3 °C, 12 days) was 7.5 cm. The Number of leaf (0.0001 mg/l, 3 °C, 12 days) was 3, the Number of tiller (0.0001 mg/l, 3 °C, 12 days) was 2 and the Weight of root (0.0001 mg/l, 3 °C, 12 days) was 2.9 g. It also gave an Area of leaf (0.0001 mg/l, 4 °C, 3 days) of 10 cm^2, a Height (0.0001 mg/l, 4 °C, 3 days) of 6.9 cm and a Weight of root (0.0001 mg/l, 4 °C, 3 days) of 2.5 g. For the same compound, the Area of leaf (0.0001 mg/l, 4 °C, 6 days) was 11.5 cm^2, the Height (0.0001 mg/l, 4 °C, 6 days) was 7.3 cm and the Weight of root (0.0001 mg/l, 4 °C, 6 days) was 2.6 g. It also gave an Area of leaf (0.0001 mg/l, 4 °C, 9 days) of 13 cm^2, a Height (0.0001 mg/l, 4 °C, 9 days) of 7.5 cm and a Weight of root (0.0001 mg/l, 4 °C, 9 days) of 2.9 g. For the same compound, the Area of leaf (0.0001 mg/l, 4 °C, 12 days) was 13.4 cm^2, the Height (0.0001 mg/l, 4 °C, 12 days) was 7.5 cm and the Number of leaf (0.0001 mg/l, 4 °C, 12 days) was 3. The Number of tiller (0.0001 mg/l, 4 °C, 12 days) was 2, the Weight of root (0.0001 mg/l, 4 °C, 12 days) was 2.9 g and the Area of leaf (0.0001 mg/l, 5 °C, 3 days) was 10.2 cm^2. It also gave a Height (0.0001 mg/l, 5 °C, 3 days) of 7.0 cm, a Weight of root (0.0001 mg/l, 5 °C, 3 days) of 2.5 g and an Area of leaf (0.0001 mg/l, 5 °C, 6 days) of 12 cm^2. The Height (0.0001 mg/l, 5 °C, 6 days) was 7.4 cm, the Weight of root (0.0001 mg/l, 5 °C, 6 days) was 2.5 g and the Area of leaf (0.0001 mg/l, 5 °C, 9 days) was 13.4 cm^2. The Height (0.0001 mg/l, 5 °C, 9 days) was 7.5 cm, the Weight of root (0.0001 mg/l, 5 °C, 9 days) was 2.9 g and the Area of leaf (0.0001 mg/l, 5 °C, 12 days) was 14 cm^2. For the same compound, the Height (0.0001 mg/l, 5 °C, 12 days) was 7.7 cm, the Number of leaf (0.0001 mg/l, 5 °C, 12 days) was 3 and the Number of tiller (0.0001 mg/l, 5 °C, 12 days) was 2. The Weight of root (0.0001 mg/l, 5 °C, 12 days) was 3.0 g, the Area of leaf (0.001 mg/l, 1 °C, 3 days) was 10 cm^2 and the Height (0.001 mg/l, 1 °C, 3 days) was 6.9 cm. The Weight of root (0.001 mg/l, 1 °C, 3 days) was 2.8 g, the Area of leaf (0.001 mg/l, 1 °C, 6 days) was 11.3 cm^2 and the Height (0.001 mg/l, 1 °C, 6 days) was 7.1 cm. The Weight of root (0.001 mg/l, 1 °C, 6 days) was 3.1 g, the Area of leaf (0.001 mg/l, 1 °C, 9 days) was 12.6 cm^2 and the Height (0.001 mg/l, 1 °C, 9 days) was 7.1 cm. The Weight of root (0.001 mg/l, 1 °C, 9 days) was 3.2 g, the Area of leaf (0.001 mg/l, 1 °C, 12 days) was 13 cm^2 and the Height (0.001 mg/l, 1 °C, 12 days) was 7.3 cm. The Number of leaf (0.001 mg/l, 1 °C, 12 days) was 3, the Number of tiller (0.001 mg/l, 1 °C, 12 days) was 3 and the Weight of root (0.001 mg/l, 1 °C, 12 days) was 3.9 g. It also gave an Area of leaf (0.001 mg/l, 2 °C, 3 days) of 9.8 cm^2, a Height (0.001 mg/l, 2 °C, 3 days) of 6.9 cm and a Weight of root (0.001 mg/l, 2 °C, 3 days) of 2.8 g.
